Data from article PMC11965064, “Identification and verification of methylenetetrahydrofolate dehydrogenase 1-like protein as the binding target of natural product pseudolaric acid A” (Natural Products and Bioprospecting, 2025).

Biological target: T1, methylenetetrahydrofolate dehydrogenase 1-like (MTHFD1L) (Homo sapiens, UniProt Q6UB35)
T1 construct: MTHFD1L (68–978 AA), recombinant from E. coli, MBP tag cleaved with thrombin
T1 sequence (Q6UB35 68-978): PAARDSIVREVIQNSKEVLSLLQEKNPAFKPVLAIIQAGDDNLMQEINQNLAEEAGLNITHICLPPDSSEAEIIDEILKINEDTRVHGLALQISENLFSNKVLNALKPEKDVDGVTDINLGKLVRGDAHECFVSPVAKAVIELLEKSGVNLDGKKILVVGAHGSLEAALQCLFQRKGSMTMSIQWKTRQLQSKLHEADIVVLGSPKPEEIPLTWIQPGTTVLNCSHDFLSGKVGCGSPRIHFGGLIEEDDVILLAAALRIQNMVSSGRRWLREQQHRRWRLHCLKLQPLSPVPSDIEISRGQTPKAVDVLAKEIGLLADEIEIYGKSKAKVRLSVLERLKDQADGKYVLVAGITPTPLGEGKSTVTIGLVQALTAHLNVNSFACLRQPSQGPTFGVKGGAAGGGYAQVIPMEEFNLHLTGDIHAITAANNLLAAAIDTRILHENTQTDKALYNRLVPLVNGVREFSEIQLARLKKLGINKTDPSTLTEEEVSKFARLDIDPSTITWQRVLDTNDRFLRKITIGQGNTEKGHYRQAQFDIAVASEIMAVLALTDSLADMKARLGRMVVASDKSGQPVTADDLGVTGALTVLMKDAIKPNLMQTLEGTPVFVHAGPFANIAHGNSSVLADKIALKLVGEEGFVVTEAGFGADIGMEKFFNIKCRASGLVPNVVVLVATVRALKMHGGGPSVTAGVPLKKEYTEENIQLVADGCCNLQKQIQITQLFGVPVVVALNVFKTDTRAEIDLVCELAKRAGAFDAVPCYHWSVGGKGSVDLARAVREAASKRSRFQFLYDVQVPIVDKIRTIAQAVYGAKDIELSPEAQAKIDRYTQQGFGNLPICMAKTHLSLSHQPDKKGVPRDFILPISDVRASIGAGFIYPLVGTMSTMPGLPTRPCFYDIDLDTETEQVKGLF
Assay: SPR (Biacore T200, steady-state affinity); supported by NMR STD, DARTS and ABPP competition
Format: binding

Kd: ~4.05 µM
SMILES: CC(=O)O[C@]12CCC(C)=CC[C@]13CC[C@H]2[C@@](C)(/C=C/C=C(\C)C(=O)O)OC3=O [PAA, pseudolaric acid A]
